Activity calls are given as the source filed them. How the calls were made is not given here.
System: CCRIS mutagenicity, Ames/micronucleus/aberration tests
Test: CCRIS mutagenicity studies
[1] = Test System: AMES SALMONELLA TYPHIMURIUM, Strain/Indicator: TA98, Metabolic Activation: NONE, Method: STANDARD PLATE
[2] = Test System: AMES SALMONELLA TYPHIMURIUM, Strain/Indicator: TA100, Metabolic Activation: NONE, Method: STANDARD PLATE
[3] = Test System: AMES SALMONELLA TYPHIMURIUM, Strain/Indicator: TA100, Metabolic Activation: RAT, LIVER, S-9, AROCLOR 1254, Method: STANDARD PLATE
[4] = Test System: AMES SALMONELLA TYPHIMURIUM, Strain/Indicator: TA102, Metabolic Activation: NONE, Method: STANDARD PLATE
[5] = Test System: AMES SALMONELLA TYPHIMURIUM, Strain/Indicator: TA1535, Metabolic Activation: NONE, Method: STANDARD PLATE
[6] = Test System: AMES SALMONELLA TYPHIMURIUM, Strain/Indicator: TA1538, Metabolic Activation: NONE, Method: STANDARD PLATE

CC(=O)N1CCC[C@H]1C(=O)N(CC(=O)O)N=O
mutagenic call [1]: inactive; negative | mutagenic call (Test System: AMES SALMONELLA TYPHIMURIUM, Strain/Indicator: TA98, Metabolic Activation: RAT, LIVER, S-9, AROCLOR 1254, Method: STANDARD PLATE): inactive; negative | mutagenic call (Test System: AMES SALMONELLA TYPHIMURIUM, Strain/Indicator: TA100, Metabolic Activation: HOST MEDIATED, Method: STANDARD PLATE): active; positive | mutagenic call [2]: active; positive | mutagenic call [3]: active; positive | mutagenic call [4]: active; positive | mutagenic call (Test System: AMES SALMONELLA TYPHIMURIUM, Strain/Indicator: TA102, Metabolic Activation: RAT, LIVER, S-9, AROCLOR 1254, Method: STANDARD PLATE): active; positive | mutagenic call [5]: active; positive | mutagenic call (Test System: AMES SALMONELLA TYPHIMURIUM, Strain/Indicator: TA1535, Metabolic Activation: RAT, LIVER, S-9, AROCLOR 1254, Method: STANDARD PLATE): active; positive | mutagenic call (Test System: AMES SALMONELLA TYPHIMURIUM, Strain/Indicator: TA1537, Metabolic Activation: NONE, Method: STANDARD PLATE): inactive; negative | mutagenic call (Test System: AMES SALMONELLA TYPHIMURIUM, Strain/Indicator: TA1537, Metabolic Activation: RAT, LIVER, S-9, AROCLOR 1254, Method: STANDARD PLATE): inactive; negative | mutagenic call [6]: inactive; negative | mutagenic call (Test System: AMES SALMONELLA TYPHIMURIUM, Strain/Indicator: TA1538, Metabolic Activation: RAT, LIVER, S-9, AROCLOR 1254, Method: STANDARD PLATE): inactive; negative | mutagenic call (Test System: CHO/HGPRT, Strain/Indicator: CHO-K1-BH4, Metabolic Activation: NONE): active; positive

COO
mutagenic call [2]: inactive; negative | mutagenic call [4]: active; positive

COP(=S)(OC)SCN1C(=O)c2ccccc2C1=O
mutagenic call (Test System: AMES SALMONELLA TYPHIMURIUM, Strain/Indicator: TA97, Metabolic Activation: NONE, Method: STANDARD PLATE): active; positive | mutagenic call (Test System: AMES SALMONELLA TYPHIMURIUM, Strain/Indicator: TA97, Metabolic Activation: RAT, LIVER, S-9, DELOR 103, Method: STANDARD PLATE): active; positive | mutagenic call (Test System: AMES SALMONELLA TYPHIMURIUM, Strain/Indicator: TA97, Metabolic Activation: RAT, LIVER, S-9, PHENOBARBITAL, Method: STANDARD PLATE): active; positive | mutagenic call [1]: inactive; negative | mutagenic call (Test System: AMES SALMONELLA TYPHIMURIUM, Strain/Indicator: TA98, Metabolic Activation: RAT, LIVER, S-9, DELOR 103, Method: STANDARD PLATE): inactive; negative | mutagenic call (Test System: AMES SALMONELLA TYPHIMURIUM, Strain/Indicator: TA98, Metabolic Activation: RAT, LIVER, S-9, PHENOBARBITAL, Method: STANDARD PLATE): inactive; negative | mutagenic call [2]: active; positive | mutagenic call (Test System: AMES SALMONELLA TYPHIMURIUM, Strain/Indicator: TA100, Metabolic Activation: RAT, LIVER, S-9, DELOR 103, Method: STANDARD PLATE): active; positive | mutagenic call (Test System: AMES SALMONELLA TYPHIMURIUM, Strain/Indicator: TA100, Metabolic Activation: RAT, LIVER, S-9, PHENOBARBITAL, Method: STANDARD PLATE): active; positive | mutagenic call (Test System: AMES SALMONELLA TYPHIMURIUM, Strain/Indicator: TA100, Metabolic Activation: S-9 MIX, Method: STANDARD PLATE): active; positive | mutagenic call [5]: inactive; negative | mutagenic call (Test System: AMES SALMONELLA TYPHIMURIUM, Strain/Indicator: TA1535, Metabolic Activation: RAT, LIVER, S-9, DELOR 103, Method: STANDARD PLATE): inactive; negative | mutagenic call (Test System: AMES SALMONELLA TYPHIMURIUM, Strain/Indicator: TA1535, Metabolic Activation: RAT, LIVER, S-9, PHENOBARBITAL, Method: STANDARD PLATE): inactive; negative | mutagenic call [6]: inactive; negative | mutagenic call (Test System: AMES SALMONELLA TYPHIMURIUM, Strain/Indicator: TA1538, Metabolic Activation: RAT, LIVER, S-9, DELOR 103, Method: STANDARD PLATE): inactive; negative | mutagenic call (Test System: AMES SALMONELLA TYPHIMURIUM, Strain/Indicator: TA1538, Metabolic Activation: RAT, LIVER, S-9, PHENOBARBITAL, Method: STANDARD PLATE): inactive; negative | mutagenic call (Test System: CHINESE HAMSTER V-79, Strain/Indicator: V-79/6-THIOGUANINE, Metabolic Activation: NONE, Method: RESPREADING): inactive; negative | mutagenic call (Test System: CHINESE HAMSTER V-79, Strain/Indicator: V-79/6-THIOGUANINE, Metabolic Activation: RAT, LIVER, S-9, Method: RESPREADING): active; positive

c1ccc(Cc2ccc(OCC3CO3)cc2)cc1 (stereo not drawn)
mutagenic call [2]: active; positive | mutagenic call [5]: active; positive

CCCOc1ccc(N)cc1N
mutagenic call (Test System: AMES SALMONELLA TYPHIMURIUM, Strain/Indicator: TA97, Metabolic Activation: RAT, LIVER, S-9, AROCLOR 1254 (4%), Method: STANDARD PLATE): inactive; negative | mutagenic call (Test System: AMES SALMONELLA TYPHIMURIUM, Strain/Indicator: TA97, Metabolic Activation: RAT, LIVER, S-9, AROCLOR 1254 (10%), Method: STANDARD PLATE): active; positive | mutagenic call (Test System: AMES SALMONELLA TYPHIMURIUM, Strain/Indicator: TA1537, Metabolic Activation: RAT, LIVER, S-9, AROCLOR 1254 (4 OR 10%), Method: STANDARD PLATE): active; positive | mutagenic call (Test System: AMES SALMONELLA TYPHIMURIUM, Strain/Indicator: TA1538, Metabolic Activation: RAT, LIVER, S-9, AROCLOR 1254 (4 OR 10%), Method: STANDARD PLATE): active; positive

c1ccc2c(c1)ccc1cccnc12
mutagenic call [3]: inactive; negative | mutagenic call (Test System: AMES SALMONELLA TYPHIMURIUM, Strain/Indicator: TA100, Metabolic Activation: RAT, LIVER, S-9, PCB, Method: STANDARD PLATE): active; positive | mutagenic call (Test System: AMES SALMONELLA TYPHIMURIUM, Strain/Indicator: TA100, Metabolic Activation: RAT, LIVER, S-9, PHENOBARBITAL AND 5,6-BENZOFLAVONE, Method: PREINCUBATION): inactive; negative
